The supplement of paper PMC10307832

Columns and labels:
Test in all cases: relative viability (nuclei count vs DMSO), 5 days (fraction); higher = more cells survive
Motesanib + Linsitinib = compound: CC1(C)CNc2cc(NC(=O)c3cccnc3NCc3ccncc3)ccc21 [Motesanib] + C[C@]1(O)C[C@@H](c2nc(-c3ccc4ccc(-c5ccccc5)nc4c3)c3c(N)nccn32)C1 [Linsitinib] (partner 1 µM)
Method in brief: (§1)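 Nuclei were stained with Hoechst during a one-step fixation (final 0.05% Triton X-100, 1% formaldehyde, 1 ug/ml Hoechst) carried out 5 days after dosing, then counted on 4× images. The cells, lung cancer lines in 1536-well plates, had been dosed by pin tool the day after seeding with one drug alone or a fixed anchor-drug dose plus five library-drug doses (not always all listed) in √10 steps. Relative viability is the nuclei count in treated wells divided by that in vehicle wells, and each value is the median of duplicate plates.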

[1] = compound: C[C@@]1(C(=O)Nc2ccc(F)nc2)CCCN1c1nc(Nc2cc(C3CC3)n[nH]2)c2cccn2n1 + CS(=O)(=O)CCNCc1ccc(-c2ccc3ncnc(Nc4ccc(OCc5cccc(F)c5)c(Cl)c4)c3c2)o1 [Lapatinib] (partner 2 µM)
Method in brief: as §1

Motesanib + Dasatinib = compound: CC1(C)CNc2cc(NC(=O)c3cccnc3NCc3ccncc3)ccc21 [Motesanib] + Cc1nc(Nc2ncc(C(=O)Nc3c(C)cccc3Cl)s2)cc(N2CCN(CCO)CC2)n1 [Dasatinib] (partner 0.075 µM)
Method in brief: as §1

Motesanib + Pemetrexed = compound: CC1(C)CNc2cc(NC(=O)c3cccnc3NCc3ccncc3)ccc21 [Motesanib] + Nc1nc2[nH]cc(CCc3ccc(C(=O)N[C@@H](CCC(=O)O)C(=O)O)cc3)c2c(=O)[nH]1 [Pemetrexed] (partner 0.2 µM)
Method in brief: as §1

Cell Line | relative viability (Motesanib + Linsitinib; first compound 0.01 µM) | relative viability (Motesanib + Linsitinib; first compound 0.03162 µM) | relative viability (Motesanib + Linsitinib; first compound 0.1 µM) | relative viability (Motesanib + Linsitinib; first compound 0.3162 µM) | relative viability (Motesanib + Linsitinib; first compound 1 µM) | relative viability ([1]; first compound 0.04 µM) | relative viability ([1]; first compound 0.1265 µM) | relative viability ([1]; first compound 0.4 µM) | relative viability ([1]; first compound 1.265 µM) | relative viability (Motesanib + Dasatinib; first compound 0.01 µM) | relative viability (Motesanib + Dasatinib; first compound 0.03162 µM) | relative viability (Motesanib + Dasatinib; first compound 0.1 µM) | relative viability (Motesanib + Dasatinib; first compound 0.3162 µM) | relative viability (Motesanib + Dasatinib; first compound 1 µM) | relative viability (Motesanib + Pemetrexed; first compound 0.01 µM) | relative viability (Motesanib + Pemetrexed; first compound 0.03162 µM) | relative viability (Motesanib + Pemetrexed; first compound 0.1 µM) | relative viability (Motesanib + Pemetrexed; first compound 0.3162 µM) | relative viability (Motesanib + Pemetrexed; first compound 1 µM)
NCI-H3122 | 0.986 | 0.961 | 0.991 | 1.01 | 0.965 | 0.94 | 1.03 | 0.958 | 1.03 | 0.705 | 0.825 | 0.677 | 0.893 | 0.916 | 0.186 | 0.191 | 0.184 | 0.202 | 0.219
NCI-H1975 | 0.962 | 0.9 | 0.948 | 0.909 | 0.941 | 0.844 | 0.88 | 0.601 | 0.594 | 0.363 | 0.328 | 0.397 | 0.324 | 0.312 | 0.283 | 0.281 | 0.274 | 0.271 | 0.239
NCI-H1944 | 1.2 | 1.21 | 1.18 | 1.32 | 1.21 | 0.679 | 0.536 | 0.426 | 0.582 | 0.205 | 0.215 | 0.25 | 0.225 | 0.231 | 0.58 | 0.628 | 0.565 | 0.554 | 0.442
LU99A | 0.496 | 0.565 | 0.537 | 0.511 | 0.594 | 0.808 | 0.545 | 0.48 | 0.342 | 0.636 | 0.453 | 0.681 | 0.606 | 0.524 | 0.2 | 0.181 | 0.185 | 0.18 | 0.174
SW 1573 | 0.815 | 0.825 | 0.65 | 0.773 | 0.949 | 1.04 | 0.902 | 0.729 | 1 | 0.53 | 0.447 | 0.593 | 0.552 | 0.673 | 0.764 | 0.833 | 0.864 | 0.882 | 0.854
NCI-H2347 | 0.985 | 1.01 | 1.06 | 1 | 1 | 0.955 | 0.874 | 0.842 | 0.959 | 0.299 | 0.302 | 0.344 | 0.3 | 0.305 | 0.396 | 0.406 | 0.387 | 0.447 | 0.364
NCI-H2009 | 1.14 | 1.27 | 1.17 | 1.22 | 1.18 | 1.04 | 1.02 | 0.856 | 0.607 | 0.286 | 0.245 | 0.304 | 0.314 | 0.346 | 0.949 | 1.02 | 1.01 | 1.06 | 0.973
HCC-15 | 0.928 | 0.801 | 0.922 | 0.992 | 0.926 | 0.839 | 0.743 | 0.746 | 0.739 | 0.648 | 0.53 | 0.648 | 0.758 | 0.723 | 0.212 | 0.203 | 0.188 | 0.179 | 0.202
